Test [1] deals with T1, ΔF508-CFTR (Homo sapiens, UniProt P13569, DEL508-508).
T1 construct: host or cells: CFBE41o-, doxycycline-inducible
As to the kind of experiment: CFTR cell surface levels using HRP-tagged ΔF508-CFTR expressing CFBE cells, in the presence of a co-corrector. The format is cell-based. The note with it: HRP-tagged ΔF508-CFTR expressing CFBE cells, in the presence of 3 μM co-corrector; for EC50: read-out: EC50. Summed up:
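Cells were seeded with 0.5 μg/mL doxycycline and held 68 h at 37 °C. Test compounds plus 3 μM co-corrector (final 0.1% DMSO) were then added for 20 h at 33 °C. Washed cells received HRP substrate, and luminescence was normalized between DMSO and 3 μM co-corrector controls.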

The target in test [2] is T1, ΔF508-CFTR. Put plainly: CFTR cell surface levels using HRP-tagged ΔF508-CFTR expressing CFBE cells, intrinsic corrector capacity. It is filed as cell-based. The note with it: for EC50: read-out: EC50. Summed up:
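Here the cells express ΔF508-CFTR with horseradish peroxidase inserted in extracellular loop 4, so only rescued channel at the surface gives luminescent signal. Compounds act on their own, 20 h at the reduced temperature of 33 °C; values are percent activity relative to DMSO and a 3 μM corrector.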

Setting [3] is: HRP-tagged ΔF508-CFTR CFBE41o- cells, compounds alone (intrinsic corrector capacity), 20 hours at 33° C., positive control 3 μM corrector.
[4] abbreviates: HRP-tagged ΔF508-CFTR CFBE41o- cells, compounds alone (intrinsic corrector capacity), 20 hours at 33° C.
Where [5] appears, read: HRP-tagged ΔF508-CFTR expressing CFBE cells, intrinsic corrector capacity (no co-corrector), 33° C., 20 hours.

The structures appear in SMILES notation.

T1 sequence (P13569 with tags, fused parts or gaps DEL508-508): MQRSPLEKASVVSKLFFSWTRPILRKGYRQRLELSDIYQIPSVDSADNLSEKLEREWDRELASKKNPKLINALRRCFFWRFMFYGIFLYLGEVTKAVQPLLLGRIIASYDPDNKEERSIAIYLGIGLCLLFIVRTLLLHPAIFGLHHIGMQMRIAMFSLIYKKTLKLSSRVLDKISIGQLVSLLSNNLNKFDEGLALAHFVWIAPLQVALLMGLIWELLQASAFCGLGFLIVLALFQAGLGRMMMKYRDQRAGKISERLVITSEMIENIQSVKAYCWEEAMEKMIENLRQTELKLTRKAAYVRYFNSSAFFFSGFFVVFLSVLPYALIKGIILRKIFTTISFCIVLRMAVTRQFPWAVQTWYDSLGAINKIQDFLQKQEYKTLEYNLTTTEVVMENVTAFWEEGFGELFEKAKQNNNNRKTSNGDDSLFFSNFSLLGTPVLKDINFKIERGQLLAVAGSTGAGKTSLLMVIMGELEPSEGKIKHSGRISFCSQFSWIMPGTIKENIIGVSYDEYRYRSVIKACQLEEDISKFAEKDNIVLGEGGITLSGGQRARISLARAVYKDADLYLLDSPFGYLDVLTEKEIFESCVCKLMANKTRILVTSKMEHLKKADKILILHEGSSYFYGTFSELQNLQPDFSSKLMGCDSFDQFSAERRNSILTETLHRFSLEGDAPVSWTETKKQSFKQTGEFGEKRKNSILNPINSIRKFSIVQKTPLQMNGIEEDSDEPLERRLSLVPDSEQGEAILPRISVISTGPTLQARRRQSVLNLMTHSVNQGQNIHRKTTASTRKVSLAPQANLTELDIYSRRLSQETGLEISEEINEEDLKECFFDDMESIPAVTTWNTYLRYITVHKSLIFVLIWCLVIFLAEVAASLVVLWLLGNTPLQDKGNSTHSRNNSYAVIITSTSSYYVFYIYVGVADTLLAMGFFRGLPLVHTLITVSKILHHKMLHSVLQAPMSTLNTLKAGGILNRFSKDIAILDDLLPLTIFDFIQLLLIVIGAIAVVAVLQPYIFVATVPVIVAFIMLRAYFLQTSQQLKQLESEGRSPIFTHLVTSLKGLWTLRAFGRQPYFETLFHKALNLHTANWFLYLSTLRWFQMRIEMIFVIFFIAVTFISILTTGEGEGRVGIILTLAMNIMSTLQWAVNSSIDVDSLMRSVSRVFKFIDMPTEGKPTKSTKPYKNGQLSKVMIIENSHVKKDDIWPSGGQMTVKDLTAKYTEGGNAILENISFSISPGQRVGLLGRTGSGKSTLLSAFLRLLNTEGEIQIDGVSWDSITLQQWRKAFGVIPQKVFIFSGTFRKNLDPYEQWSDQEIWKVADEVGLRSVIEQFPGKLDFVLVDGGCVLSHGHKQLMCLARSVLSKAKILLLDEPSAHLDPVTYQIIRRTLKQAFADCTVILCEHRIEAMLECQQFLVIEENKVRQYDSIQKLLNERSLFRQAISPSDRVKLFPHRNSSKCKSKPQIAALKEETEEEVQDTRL

What is called EC50 is the concentration at which the effect is half-maximal. As for `CC(C)c1nn(-c2ccc(F)cc2F)c2nc(C(=O)O)cc(-c3ccc(N4CCC(C#N)CC4)cc3)c12` [compound 327, 4-[4-(4-cyanopiperidin-1-yl)phenyl]-1-(2,4-difluorophenyl)-3-(propan-2-yl)-1H-pyrazolo[3,4-b]pyridine-6-carboxylic acid], the “% Activation” value at ΔF508-CFTR [1] is reported as 335.63%; on ΔF508-CFTR [2] (setting [3]), 176%. The EC50 at ΔF508-CFTR [1] is 241 nM; at ΔF508-CFTR [2] (setting [4]) it was 369 nM.
The like results for `COCCN(C)c1ccc(-c2cc(C(=O)O)nc3c2c(C(C)C)nn3-c2cccc(N3CCC3)c2)cn1` [compound 239, 1-[3-(azetidin-1-yl)phenyl]-4-{6-[(2-methoxyethyl)(methyl)amino]pyridin-3-yl}-3-(propan-2-yl)-1H-pyrazolo[3,4-b]pyridine-6-carboxylic acid] were, in that order, 495.85%, 327.55%, 713 nM and 875 nM.
The like results for `COc1ccc(-c2cc(C(=O)O)nc3c2c(C)nn3C2CCCCC2)cc1` [compound 2, 1-cyclohexyl-4-(4-methoxyphenyl)-3-methyl-1H-pyrazolo[3,4-b]pyridine-6-carboxylic acid] were, in that order, 198.6%, 49.03%, 2970 nM and 2650 nM.
The like results for `CO[C@H]1CCN(c2cc(C(=O)O)nc3c2c(C)nn3-c2ccccc2)C1` [compound 296, 4-[(3S)-3-methoxypyrrolidin-1-yl]-3-methyl-1-phenyl-1H-pyrazolo[3,4-b]pyridine-6-carboxylic acid] were, in that order, 164%, 29.42%, 2510 nM and 4170 nM.
With `CN(C[C@H]1CCN(c2cc(C(=O)O)nc3c2c(C2CCC2)nn3-c2ccccc2)C1)C(=O)OC(C)(C)C` [compound 675, 4-[(3S)-3-{[(tert-butoxycarbonyl)(methyl)amino]methyl}pyrrolidin-1-yl]-3-cyclobutyl-1-phenyl-1H-pyrazolo[3,4-b]pyridine-6-carboxylic acid], the “% Activation” value worked out at 303.65% at ΔF508-CFTR [1] and 118.8% at ΔF508-CFTR [2] (setting [5]). For the same molecule, the EC50 came out at 1050 nM on ΔF508-CFTR [1] and 659 nM at ΔF508-CFTR [2] (setting [5]).
The like results for `O=CN1CCCN(CC2CCN(c3cc(C(=O)O)nc4c3c(C3CCC3)nn4-c3ccccc3)CC2)CC1` [compound 839] were, in that order, 437.3%, 275.7%, 180 nM and 921 nM.
Regarding `CC(C)c1nn(C2CCCC2)c2nc(C(=O)O)cc(-c3cnc(N(C)C)nc3)c12` [compound 67, 1-cyclopentyl-4-[2-(dimethylamino)pyrimidin-5-yl]-3-(propan-2-yl)-1H-pyrazolo[3,4-b]pyridine-6-carboxylic acid], the “% Activation” value was determined as 280.35% on ΔF508-CFTR [1] and 117.6% on ΔF508-CFTR [2] (setting [3]). For the same molecule, the concentration for a half-maximal effect (EC50) at ΔF508-CFTR [1] was 1260 nM; at ΔF508-CFTR [2] (setting [4]), 1590 nM.
On to `O=C(O)c1cc(N2CC[C@H](F)[C@H](O)C2)c2c(C3CCC3)nn(-c3ccccc3)c2n1` [compound 535, 3-cyclobutyl-4-[(3R,4S)-4-fluoro-3-hydroxypiperidin-1-yl]-1-phenyl-1H-pyrazolo[3,4-b]pyridine-6-carboxylic acid], for which the “% Activation” value turned out to be 205.9% on ΔF508-CFTR [1] and 56.68% at ΔF508-CFTR [2] (setting [5]). The concentration for a half-maximal effect (EC50) on ΔF508-CFTR [1] stood at 1410 nM; on ΔF508-CFTR [2] (setting [5]), 2850 nM.
Take `O=C(O)c1cc(N2CCC(N3CCOCC3)CC2)c2c(C3CCC3)nn(-c3cccc(C(F)(F)F)c3)c2n1` [compound 826, 3-cyclobutyl-4-[4-(morpholin-4-yl)piperidin-1-yl]-1-[3-(trifluoromethyl)phenyl]-1H-pyrazolo[3,4-b]pyridine-6-carboxylic acid]: on ΔF508-CFTR [1], the “% Activation” value was 528.15% and the EC50 is 102 nM. Besides, on ΔF508-CFTR [2] (setting [5]), the “% Activation” value is 314.4% and the concentration for a half-maximal effect (EC50) turned out to be 157 nM.

These data come from patent US9796711B2, “Substituted pyrazolo[3,4-b]pyridin-6-carboxylic acids and method of use” (AbbVie S.àr.l., priority 2015, dated 2017).
